In US5747463A, “Malonate derivatives of glycolipids as cell adhesion inhibitors” (Bristol-Myers Squibb Company, priority 1996, dated 1998):

Experiments:
[1] = tested on: platelet: HL-60 cell adhesion; assay: HL-60 Platelet Cell Adhesion Assay; type: cell-based; conditions: 0.5 h; thrombin-activated human platelets: HL-60 5:1, 30 minutes at room temperature; read-out: P-selectin HL-60 Platelets IC50
Procedure: HL-60 cells, obtained from American Type Culture Collection, were cultured in RPMI 1640 medium (GIBCO) supplemented with 20% fetal calf serum (Sigma) and 50 μg/ml gentamicin (GIBCO). Cells in log phase growth were harvested, washed and resuspended in Tyrodes buffer containing 5 mM HEPES and 0.2% bovine serum albumin and were fixed with 1% buffered formalin.
Blood from normal human donors was anticoagulated with citrate, layered over 1-Step Platelets (Accurate Chemical Co.) and centrifuged at 350 g for 20 minutes at room temperature. The platelet band was collected, diluted in 2 volumes of Tyrode's Buffer with 5 mM HEPES, 10 mM EDTA, and 0.2% BSA (pH 7.4) (THEB) and centrifuged at 600 g for 10 minutes. The platelet pellet was resuspended in THEB and incubated at room temperature for 1 hour. Calcein-acetoxy methylester (Calcein-Am, Molecular Probes) was added to the platelets at a final concentration of 10 μM and incubated for 10 minutes at 37° C. to label the platelets. Without washing, the platelets were counted on a Coulter counter model ZM, and the concentration was adjusted to 1×10^7 /ml. The platelets were activated with 2 U/ml of human thrombin for 10 minutes in Tyrode's containing 2 mM CaCl2, 5 mM HEPES, and 0.2% BSA (pH 7.4) (THB) at 37° C. and immediately fixed with 1% buffered formalin for 1 to 2 hours at room temperature. A small aliquot of labeled platelets was removed before activation and designated as non-activated.
Both platelets and HL-60 were washed in a ≥25 fold excess volume of Hanks Balanced Salt Solution (HBSS), resuspended in THB and counted. Cell concentrations were adjusted to 2×10^7 /ml for platelets and 4×10^6 /ml for HL-60, this ratio determined to be optimum for platelet: HL-60 cell adhesion. Compounds were incubated with 50 μl of platelets for 30 minutes at room temperature before addition of 50 μl of HL-60. This ratio of 5:1 platelets to HL-60 was incubated for 30 minutes at room temperature before addition of 0.2 ml of THB to increase the volume so the samples could be analyzed on a FACScan cytometer (Becton Dickinson). Non-activated platelets, and activated platelets with 10 mM EDTA were included as controls. Data were collected within a region set for the forward scatter channel corresponding to HL-60 size events.
The percent HL-60 cells which contained bound platelets was determined for each test condition. The inhibition of binding was determined by comparison to standards which were treated with vehicle alone (representing 0% inhibition) and standards whose specific binding had been blocked by the use of EDTA (representing 100% inhibition), by the following formula: [formula] where x=HL-60 cells containing bound platelets in the presence of the compound;
b=HL-60 cells containing bound platelets in the presence of EDTA;
a=HL-60 cells containing bound platelets in the presence of compound vehicle;
z=% inhibition of platelet: HL-60 cell adhesion

P-selectin [2] = assay: P-Selectin adhesion receptor binding: ELISA, inhibition of P-selectin binding to immobilized sulfatides (cell free); conditions: 45 minutes at 37° C., pH 8.0
Procedure: Based on the availability of soluble forms of P-selectin prepared as described by Aruffo, A. et al., Cell, 67, 35-44 (1991), a binding ELISA based assay modified from Foxall, et al., J. Cell Biol., 117, 1895-902 (1992) was developed to measure inhibitors of P-selectin binding to immobilized sulfatides. Such inhibitors were tested in the assay described below.
0.1 ml of sulfatide (SIGMA) at 1 μg/ml in MeOH was added to 48 wells of a 96-well ELISA plate (ProBind, Falcon) and allowed to dry overnight at room temperature. Another set of 48 wells were incubated with the solvent (methanol, Fisher Scientific). The next day the antigen/solvent coated plates were blocked for 1.5 hours at room temperature with 5% BSA (ICN) in buffer containing 20 mM Hepes, 1 mM CaCl2 and 0.15M NaCl, pH 8.0. […] Bound complexes were detected by addition of substrate buffer (95 mM NaOAc.3H2 O, 5 mM citric acid monohydrate, 1.4 mM urea/H2 O2) containing 3,3',5,5'-tetramethylbenzidine (SIGMA). Reactions were stopped by the addition of 3N sulfuric acid and the absorbance read on an ELISA reader at dual wavelengths 450 and 630 nm. […] The data is obtained as percent inhibition of specific binding [formula] and a plot of dose vs. percent inhibition of Rg binding is generated in which IC50 (μM) is calculated and reported as cell free data in Table 1.

rats = assay: Reverse Passive Arthus Reaction in Rats (RPA); type: in vivo, male Sprague Dawley rats; conditions: single dose of 3 mg IV, rat, 4 hours after BSA
Description: The reverse passive Arthus reaction in rats is a modification of the method by Mulligan et al., as described in J. Clin. Invest, (1991) 88: 1396-1406. This is an experimental model in which the interaction of antigen-antibodycomplexes and complement leads to a severe vasculitis that is associated with edema, induration, erythema and hemorrhage. The interaction between the antigen-antibody complexes and complement leads to a localized influx of neutrophils. These neutrophils release a variety of mediators that are associated with tissue damage and vascular permeability. The localized inflammatory reaction is measured using different techniques i.e., vascular permeability and neutrophil influx which is evaluated both biochemically and microscopically.
Male Sprague Dawley specific pathogen-free rats with jugular vein cannulae (280-320 g, Hill Top Labs, Pennsylvania) are used in these studies. Animals are acclimated for at least 1 day and individually housed in stainless steel cages. The dorsal region of the rats is closely clipped 2 days prior to the experiments and divided into 4 sites on each side of the midline. Prior to all injections the rats are sedated with 0.4 ml per 300 gm rat of ketamine/rompun [1000 mg (10 ml) of ketamine HCl is mixed with 40 mg (2.0 ml) Rompun] administered IP and or inhalation anesthesia with metafane (methoxyflurane).
Bovin Serum Albumin (BSA) and rabbit polyclonal IgG rich in anti-BSA are purchased from Sigma Chemical Co. (St. Louis, Mo.). Radiolabelled ^125 I-BSA (spAct 1-5 μCi/μg) is purchased from Dupont NEN (Boston, Mass.).
Each rat is administered intradermal (ID) injection of (0.4 mg, 0.6 mg and 0.8 mg) anti-BSA in a volume of 100 μl per injection in normal saline. The ID injections are randomized near the mid dorsal region on both sides of the back bone. Immediately after the ID injections of the anti-BSA, the rats are administered intravenous (IV) injections of BSA (10 mg in 1.0 ml) in normal saline containing ^125 I labeled BSA (1 μCi/ml BSA or 5.0 μCi/kg body/wt) for quantification of dermal valscular injury. Anti-inflammatory agents such as inhibitors of adhesion molecules of the present invention are administered IV at a single dose of 3 mg immediately after BSA. Four (4) hours after the IV injection of BSA, the rats are anesthetized with metafane and 2 to 3 ml of blood is withdrawn via the cannula into an anticoagulant containing (EDTA or Heparin) tube and plasma separated and saved for neutrophil and albumin quantitation. The rats are killed and the skin surrounding the injection site (15 mm diameter) is punched out and weighed. The skin sample and a fixed volume of plasma (0.1 to 1.0 ml) is analyzed in a gamma-counter for ^125 I content. Skin samples from the contralateral side are processed and analyzed for myeloperoxidase activity (MPO) as a measure of neutrophil accumulation. As needed, samples are also processed for histological evaluation of the reacted sites.
The calculation of the plasma protein exudation into skin is made by determining the radioactivity in the tissue and relating this to the level of radioactive albumin in the blood at the time of sacrifice. […] [formula]
Percent inhibition of the test compound at 3 mg was determined as follows: [formula] Myeloperoxidase (MPO)
MPO is located in the azurophil granules of polymorphonuclear leukocytes (PMN). Because of its abundance in these cells (5% dry weight), this enzyme is used as a marker for tissue neutrophil content. For tissue MPO content, the method of Bradley, et al., was used as described in J. Invest. Dermatol. (1982) 78: 206-209. Biopsies from each treatment group were placed in plastic tubes (15×100 mm) containing 10 ml of 0.5% hexadecyltrimethylammonium bromide (HTAB) in 0.05M potassium phosphate buffer pH 6.0. The tissue was then homogenized with a Brinkmann Polytron homogenizer (10s). […]

P-selectin [3] = biological target: T1, P-selectin (Homo sapiens, UniProt P16109); conditions: literature; cited from earlier work
T1 sequence (P16109 42-830): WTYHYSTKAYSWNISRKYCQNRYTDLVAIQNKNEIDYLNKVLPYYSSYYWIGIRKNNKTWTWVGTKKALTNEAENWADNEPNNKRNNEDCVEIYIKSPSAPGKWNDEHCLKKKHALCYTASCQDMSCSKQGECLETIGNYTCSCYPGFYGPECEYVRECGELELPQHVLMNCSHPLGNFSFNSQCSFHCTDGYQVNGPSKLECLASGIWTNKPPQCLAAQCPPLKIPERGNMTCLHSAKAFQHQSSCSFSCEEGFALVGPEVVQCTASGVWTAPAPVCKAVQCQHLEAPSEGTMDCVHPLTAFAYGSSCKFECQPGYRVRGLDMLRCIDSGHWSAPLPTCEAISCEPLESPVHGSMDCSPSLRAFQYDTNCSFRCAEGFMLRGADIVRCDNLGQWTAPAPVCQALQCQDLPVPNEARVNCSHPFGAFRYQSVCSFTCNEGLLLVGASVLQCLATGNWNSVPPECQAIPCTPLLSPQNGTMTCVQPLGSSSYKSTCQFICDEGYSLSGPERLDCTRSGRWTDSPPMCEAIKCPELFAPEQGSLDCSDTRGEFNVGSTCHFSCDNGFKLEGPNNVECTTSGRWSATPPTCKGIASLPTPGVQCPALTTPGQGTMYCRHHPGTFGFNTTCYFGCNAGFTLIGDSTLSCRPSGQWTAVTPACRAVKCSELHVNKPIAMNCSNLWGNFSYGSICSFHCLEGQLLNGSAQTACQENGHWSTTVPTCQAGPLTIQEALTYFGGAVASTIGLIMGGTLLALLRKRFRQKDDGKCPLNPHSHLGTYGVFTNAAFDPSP

myeloid cell lines = conditions: cells grown in the presence of the substance; cited from earlier work

Row | IC50 [1] [µM] | IC50 (P-selectin [2]) [µM] | SMILES | RPA MPO % Inhib. (myeloperoxidase) (rats) [%] | RPA VP % Inhib. (vascular permeability) (rats) [%] | binding to P-selectin (P-selectin [3]) | inhibition of binding of P-selectin to myeloid cell lines (myeloid cell lines)
1 | 12 | 8.2 | CCCCCCCCCCCCC/C=C/[C@@H](OC(=O)c1ccccc1)[C@H](CO[C@H]1O[C@H](CO)[C@H](O)[C@H](OC(=O)c2ccccc2)[C@H]1OCCC(C(=O)O)C(=O)O)NC(=O)CCCCCCCCCCCCCCC [Example 2, (2S,3R,4E)-3-Benzoyloxy-2-hexadecanoylamino-1-[2-O-(3,3-di-carboxyprop-1-yl)-3-O-benzoyl-α-D-galactopyranosyloxy]-4-octadecene] | 96 | 41 | – | –
2 | 19 | 7 | CCCCCCCCCCCCC/C=C/[C@@H](OC(=O)c1ccccc1)[C@H](CO[C@H]1O[C@H](CO)[C@H](O)[C@H](OC(=O)c2ccccc2)[C@H]1OCCCCC(C(=O)O)C(=O)O)NC(=O)CCCCCCCCCCCCCCC [Example 4, (2S,3R,4E)-3-Benzoyloxy-2-hexadecanoylamino-1-[2-O-(5,5-dicarboxypent-1-yl)-3-O-benzoyl-α-D-galactopyranosyloxy]-4-octadecene] | 84 | 60 | – | –
3 | – | – | CC(=O)N[C@H]1C(O)O[C@H](CO)[C@@H](O[C@@H]2O[C@H](CO)[C@H](O)[C@H](O)[C@H]2O)[C@@H]1O[C@@H]1O[C@@H](C)[C@@H](O)[C@@H](O)[C@@H]1O (stereo partly shown) [Le^x] | – | – | shown to bind | –
4 | – | – | O=[Se](=O)(O)O [sodium selenate] | – | – | – | can be inhibited
